Measured values from publication PMC10830635, “In vitro cytotoxicity of Withania somnifera (L.) roots and fruits on oral squamous cell carcinoma cell lines: a study supported by flow cytometry, spectral, and computational investigations” (Frontiers in Pharmacology, 2024).
Where two headings read alike, the source gives them in different places. *1 amine or outer side, *2 acyl side, *3 side chain or, on linkers, in order; H or OH if unused. Where a SMILES comes first, the peptide text is derived from it. Bridges are numbered along the chain shown (N, C = ends). Roman numbers before positions name the chains, in order. [ ]: non-standard residue; d: D form. Actinocin(9to1) = Cc1c2oc3c(C)ccc(C(=O)[*:1])c3nc-2c(C(=O)[*:2])c(N)c1=O; NMeV = CN[C@H](C(=O)O)C(C)C; Sar = CNCC(=O)O

Tests used:
[1] = tested on: Ca9-22 (human gingival squamous carcinoma cell line); experiment: MTT cytotoxicity assay, Ca9-22; details: for CC50: Homo sapiens, Ca9-22, 48 h, read-out: CC50 Ca9-22 (A)
Procedure: (§1) The cancer cell lines (HSC-2, HSC-3, HSC-4), as well as the normal cells (HGF, HPLF, and HPC), were cultured at 37°C in a humidified 5% CO2 incubator in DMEM medium enriched with streptomycin sulphate (100 μg/mL), 10% heat-inactivated FBS, and penicillin G (100 units/mL). For cytotoxicity testing, cells were then garnered using 0.25% trypsin–0.025% sodium edetate in a phosphate-buffered saline lacking Ca^2+/Mg^2+ [PBS (−)]. The cells were cultured in 96-well microplates at a cell count of 3 ×10^3 cells/100 μL. After 2 days, the exhausted medium was replaced with fresh medium containing the different concentrations of sample to be tested, in triplicate. The initial sample concentration was set at 5 mg/mL in DMSO. The first concentration examined was thus 500 μg/mL, which was then successively diluted 2-fold. In the wells assigned for control, equal volumes of the DMSO were added to the cells, where the toxic effects of DMSO could be subtracted. The cell growth in the incubator was continued for another 2 days. […] The concentration of cytotoxicity 50% (CC50) was determined from the dose-response curve. […] The changes in cell morphology were detected using light microscopy (EVOSfl; ThermoFisher Scientific, Waltham, MA, United States).
(§2) The following equation was used to calculate tumor specificity (TS): TS = average CC50 toward the normal cells (HGF + HPLF + HPC)/average CC50 toward the tumor cell lines (Ca9-22 + HSC-2 + HSC-3 + HSC-4), as indicated by D/B (Table 1). To compare the sensitivity of the cancer cells (Ca9-22) with that of the normal cells (HGF), being generated from the same tissue, the equation TS = CC50 against HGF/CC50 against Ca9-22 was used (see C/A in Table 1).

[2] = MTT cytotoxicity assay, HPLF; format: cell-based; details: human, normal periodontal ligament fibroblasts (HPLF), normal cells, 2 days exposure
Procedure: (§3) The cancer cell lines (HSC-2, HSC-3, HSC-4), as well as the normal cells (HGF, HPLF, and HPC), were cultured at 37°C in a humidified 5% CO2 incubator in DMEM medium enriched with streptomycin sulphate (100 μg/mL), 10% heat-inactivated FBS, and penicillin G (100 units/mL). For cytotoxicity testing, cells were then garnered using 0.25% trypsin–0.025% sodium edetate in a phosphate-buffered saline lacking Ca^2+/Mg^2+ [PBS (−)]. The cells were cultured in 96-well microplates at a cell count of 3 ×10^3 cells/100 μL. After 2 days, the exhausted medium was replaced with fresh medium containing the different concentrations of sample to be tested, in triplicate. The initial sample concentration was set at 5 mg/mL in DMSO. The first concentration examined was thus 500 μg/mL, which was then successively diluted 2-fold. In the wells assigned for control, equal volumes of the DMSO were added to the cells, where the toxic effects of DMSO could be subtracted. The cell growth in the incubator was continued for another 2 days. To determine the cell viability, the colorimetric MTT method was employed as described in our preceding article ([Orabi et al., 2021]). The concentration of cytotoxicity 50% (CC50) was determined from the dose-response curve. The mean CC50 value for each type of cell was calculated from triplicate assays ([Kantoh et al., 2010]).

[3] = tested on: HSC-2 (human squamous carcinoma, derived from tongue); experiment: MTT cytotoxicity assay, HSC-2; format: cell-based; details: HSC-2, 48 h, read-out: CC50 HSC-2
Procedure: as §3

[4] = tested on: HSC-4 (human squamous carcinoma, derived from tongue); experiment: MTT cytotoxicity assay, HSC-4; format: cell-based; details: HSC-4, 48 h, read-out: CC50 HSC-4
Procedure: as §3

[5] = MTT cytotoxicity assay, normal oral cells together (mean); format: cell-based; details: human; mean of HGF, HPLF, HPC; read-out: CC50 Mean (D), human normal oral cells
Procedure: The cancer cell lines (HSC-2, HSC-3, HSC-4), as well as the normal cells (HGF, HPLF, and HPC), were cultured at 37°C in a humidified 5% CO2 incubator in DMEM medium enriched with streptomycin sulphate (100 μg/mL), 10% heat-inactivated FBS, and penicillin G (100 units/mL). For cytotoxicity testing, cells were then garnered using 0.25% trypsin–0.025% sodium edetate in a phosphate-buffered saline lacking Ca^2+/Mg^2+ [PBS (−)]. The cells were cultured in 96-well microplates at a cell count of 3 ×10^3 cells/100 μL. After 2 days, the exhausted medium was replaced with fresh medium containing the different concentrations of sample to be tested, in triplicate. The initial sample concentration was set at 5 mg/mL in DMSO. The first concentration examined was thus 500 μg/mL, which was then successively diluted 2-fold. In the wells assigned for control, equal volumes of the DMSO were added to the cells, where the toxic effects of DMSO could be subtracted. The cell growth in the incubator was continued for another 2 days. […] The concentration of cytotoxicity 50% (CC50) was determined from the dose-response curve.

[6] = MTT cytotoxicity assay, HPC; format: cell-based; details: human, normal pulp cells (HPC), 2 days exposure
Procedure: For cytotoxicity testing, cells were then garnered using 0.25% trypsin–0.025% sodium edetate in a phosphate-buffered saline lacking Ca^2+/Mg^2+ [PBS (−)]. The cells were cultured in 96-well microplates at a cell count of 3 ×10^3 cells/100 μL. After 2 days, the exhausted medium was replaced with fresh medium containing the different concentrations of sample to be tested, in triplicate. The initial sample concentration was set at 5 mg/mL in DMSO. The first concentration examined was thus 500 μg/mL, which was then successively diluted 2-fold. In the wells assigned for control, equal volumes of the DMSO were added to the cells, where the toxic effects of DMSO could be subtracted. The cell growth in the incubator was continued for another 2 days. To determine the cell viability, the colorimetric MTT method was employed as described in our preceding article ([Orabi et al., 2021]). The concentration of cytotoxicity 50% (CC50) was determined from the dose-response curve. The mean CC50 value for each type of cell was calculated from triplicate assays ([Kantoh et al., 2010]). The changes in cell morphology were detected using light microscopy (EVOSfl; ThermoFisher Scientific, Waltham, MA, United States).

[7] = MTT cytotoxicity assay, HGF; format: cell-based; details: human, normal gingival fibroblasts (HGF), normal cells, 2 days exposure
Procedure: as §3

[8] = tested on: OSCC cell lines (Ca9-22 + HSC-2 + HSC-3 + HSC-4); experiment: MTT cytotoxicity assay, OSCC cell lines together (mean, TS, PSE); details: for CC50: Homo sapiens, read-out: CC50 Mean (B), human oral squamous cell carcinoma cell lines; for Type of growth inhibition (cytotoxic or cytostatic) from dose-response curve: OSCC cell lines and normal oral cells, Figure 1
Procedure: as §1, §2

[9] = tested on: HSC-3 (human squamous carcinoma, derived from tongue); experiment: MTT cytotoxicity assay, HSC-3; format: cell-based; details: HSC-3, 48 h, read-out: CC50 HSC-3
Procedure: as §3

Ca9-22 cells = experiment: Cell cycle analysis (PI staining, cell sorter) and cell morphology; format: cell-based, human; details: Ca9-22, 20 h, 1 µM
Procedure: The changes in cell morphology were detected using light microscopy (EVOSfl; ThermoFisher Scientific, Waltham, MA, United States).
Ca9-22 cells (3 × 10^4/mL, 10 mL) were added to a 10-cm dish and allowed to fully attach to the dish over the course of 48 h of incubation. […] These cells were mixed and then washed once with PBS (−). Both cell groups were fixed for 1 h on ice with 1% paraformaldehyde. Fixed cells were then washed twice with PBS (−) and treated with 400 μL of 200 μg/mL RNase A (which was preheated for 10 min at 100°C to inactivate DNase) to degrade RNA. The cells were then washed twice with PBS (−) and stained for 15 min with 0.01% propidium iodide (PI) in the presence of 0.01% NP-40 in PBS (−) to prevent cell aggregation. After filtering through Falcon® cell strainers (nylon mesh, pore size: 40 μm) (Corning, NY, United States) to remove aggregated cells, PI-stained cells were then subjected to cell sorting using (SH800 Series; SONY Imaging Products and Solutions Inc., Kanagawa, Japan), and finally analyzed with the Cell Sorter Software version 2.1.2.

| Structure (SMILES) | CC50 [1] | CC50 at 2 days [2] | CC50 ([3]; MTT, 2 days exposure) | CC50 ([4]; MTT, 2 days exposure) | CC50 at 2 days [5] | CC50 at 2 days [6] | CC50 at 2 days [7] | CC50 [8] | Type of growth inhibition (cytotoxic or cytostatic) from dose-response curve [8] | CC50 ([9]; MTT, 2 days exposure) | Morphological change of cells (Ca9-22 cells) | TS (tumor selectivity) C/A ([1]; CC50 HGF / CC50 Ca9-22) | CC50 [3] | CC50 [4] | CC50 [9] |
| --- | --- | --- | --- | --- | --- | --- | --- | --- | --- | --- | --- | --- | --- | --- | --- |
| O=c1[nH]cc(F)c(=O)[nH]1 [5-FU, 5-fluorouracil] | 69.4 µM | > 1000 µM | 292 µM | 182 µM | > 1000 µM | > 1000 µM | > 1000 µM | > 386 µM | Cytostatic | > 1000 µM |  |  |  |  |  |
| Cc1c2oc3c(C)ccc(C(=O)N[C@@H]4C(=O)N[C@H](C(C)C)C(=O)N5CCC[C@H]5C(=O)N(C)CC(=O)N(C)[C@@H](C(C)C)C(=O)O[C@@H]4C)c3nc-2c(C(=O)N[C@@H]2C(=O)N[C@H](C(C)C)C(=O)N3CCC[C@H]3C(=O)N(C)CC(=O)N(C)[C@@H](C(C)C)C(=O)O[C@@H]2C)c(N)c1=O [Act.D, actinomycin D] (I: T[dV]P[Sar][NMeV] / II: T[dV]P[Sar][NMeV]; ester I:1-I:C, II:1-II:C; linker I:N-II:N via Actinocin(9to1)) |  |  |  |  |  |  |  |  |  |  | cell shrinkage |  |  |  |  |
| COc1cccc2c1C(=O)c1c(O)c3c(c(O)c1C2=O)C[C@@](O)(C(=O)CO)C[C@@H]3O[C@H]1C[C@H](N)[C@H](O)[C@H](C)O1 [Doxorubicin, doxorubicin] | 0.18 µM | > 10 µM | 0.09 µM | < 0.078 µM | > 10 µM | > 10 µM | > 10 µM | < 0.13 µM | Cytotoxic | 0.16 µM |  |  |  |  |  |
| N[C@@H](Cc1ccc(N(CCCl)CCCl)cc1)C(=O)O [Melphalan, melphalan] | 36.3 µM | > 200 µM |  |  | > 180 µM | 159 µM | 180 µM | 17.8 µM | Cytotoxic |  |  | 5.0 | 11 µM | 9.9 µM | 14.1 µM |
